# From patent US10738007B2, “Amide compounds as kinase inhibitors, compositions and methods of treatment” (TRANSLATIONAL DRUG DEVELOPMENT, LLC, priority 2016, dated 2020)
# Where two headings read alike, the source gives them in different places.
# Experiments:
# ROCK2 = ROCK2 (Homo sapiens (Human), UniProt O75116); assay: ROCK2 kinase inhibition assay (peptide phosphorylation, LABCHIP 3000); type: biochemical; settings: 7 μM ATP, 2.5 nM ROCK2, 3 hours at 25° C.
# Method: (§1) The peptide is phosphorylated by the protein kinase ROCK1 or ROCK2. The ROCK1 or ROCK2 enzyme, substrate, and cofactors (ATP and Mg^2+) are combined in a well of a microtiter plate and incubated for 3 hours at 25° C. in the presence or absence of an inhibitor compound. At the end of the incubation, the reaction is quenched by the addition of an EDTA-containing buffer. The substrate and product are separated and quantified electrophoretically using the microfluidic-based LABCHIP® 3000 Drug Discovery System from Caliper Life Sciences (Hopkinton, Mass.).
# (§2) The components of the assay mixture are:
# 10 μM Sodium Orthovanadate
# 10 LM Beta-Glycerophosphate
# (§3) 5 μM ATP (for ROCK1) or 7 μM ATP (for ROCK2)
# 3 nM ROCK1 or 2.5 nM ROCK2 enzyme
# (§4) Substrate and product peptides present in each sample are separated electrophoretically using the LABCHIP® 3000 capillary electrophoresis instrument. […] Change in the relative fluorescence intensity of the substrate and product peaks is the parameter measured reflecting enzyme activity. Capillary electrophoregramms (RDA acquisition files) are analyzed using HTS Well Analyzer software (Caliper Life Sciences, Hopkinton, Mass.). The kinase activity in each sample is determined as the product to sum ratio (PSR): P/(S+P), where P is the peak height of the product peptide and S is the peak height of the substrate peptide. For each compound, enzyme activity is measured at various concentrations (12 concentrations of compound spaced by 3× dilution intervals). Negative control samples (0%-inhibition in the absence of inhibitor) and positive control samples (100%-inhibition in the presence of 20 mM EDTA) are assembled in replicates of four and are used to calculate %-inhibition values for each compound at each concentration. Percent inhibition (Pinh) is determined using the following equation: Pinh=(PSRO %−PSRinh)/(PSRO %−PSR100%)*100
# (§5) where PSRinh is the product sum ratio in the presence of inhibitor, PSRO % is the average product sum ratio in the absence of inhibitor, and PSR100% is the average product sum ratio in 100%-inhibition control samples. The IC50 values of inhibitors are determined by fitting the inhibition curves (Pinh versus inhibitor concentration) by the 4-parameter sigmoidal dose-response model using XLfit 4 software (IBDS).
# ROCK1 = ROCK1 (Homo sapiens (Human), UniProt Q13464); assay: ROCK1 kinase inhibition assay (peptide phosphorylation, LABCHIP 3000); type: biochemical; settings: 5 μM ATP, 3 nM ROCK1, 3 hours at 25° C.
# Method: as §1, §2
# 10 μM Sodium Orthovanadate
# 10 LM Beta-Glycerophosphate
# as §3
# 3 nM ROCK1 or 2.5 nM ROCK2 enzyme
# as §4, §5
# [1] = Pharmacokinetic activity in mice; type: in vivo; settings: for AUC(0-t): read-out: AUC0-8
# Method: Compounds were individually and accurately weighed out to produce a stock solution in Dimethyl-sulfoxide (DMSO) at a concentration of 2 mg/mL and stored at −20° C. From the stock solution, a working stock was prepared by diluting it in Methanol-Water 50:50 (v/v) at 20 μg/mL for calibration curve preparation and stored at 4° C. Standards used for quantitation and quality control samples (QCs) were prepared on the same day of sample processing using blank plasma obtained from non-treated mice. For each analyte, standards were prepared through serial dilutions of the working stock at concentrations of 0.1, 0.5, 1.0, 10, 50, 100, 500, and 1000 ng/mL; QCs were prepared at intermediate concentrations of 0.75, 7.5, 75, and 750 ng/mL. Plasma samples were stored at −80° C. until ready for analysis and then placed on ice for thawing. An aliquot of […] samples, standards, or QCs, were transferred into a 96-well extraction plate according to a pre-defined layout. An appropriate volume of Methanol-Formic Acid 99.9-0.1 containing internal standard (Verapamil at 25 ng/mL) was added to each well and the samples were extracted under vacuum. Eluent was then transferred into a LCMS plate for analysis using a suitable column for separation and MRM detection. Concentration of analytes was calculated based on the calibration curve and analyzed for pharmacokinetic parameters by using Non-compartmental analysis (NCA). Parameters such as Cmax, Tmax, half-life, AUC(0-last), AUC(0-∞), volume of distribution (Vss), and clearance (Cl/F) were reported.
# MV411 cell line = assay: Cell viability assay ([…]-GLO), MV411; type: cell-based; settings: for IC50: Homo sapiens, MV4-11, MV411 (ITD-FLT3+), 72 hours treatment; for FLT3-ITD+ Selectivity (K562/MV411): ratio K562/MV411
# Method: Cell viability was measured by the […] -GlO® cell viability assay from Promega (Madison, Wis.). The […] -GlO Luminescent Cell Viability Assay is a homogeneous method to determine the number of viable cells in culture based on quantitation of the ATP present, which signals the presence of metabolically active cells. Following treatment, […] -GlO® is added to treatment wells and incubated at 37° C. Luminescence values were measured at using a Molecular Devices Spectramax microplate reader.
# K562 cell line = assay: Cell viability assay ([…]-GLO), K562; type: cell-based; settings: Homo sapiens; K562 (does not express ITD-FLT3), 72 hours treatment
# Method: Cell viability in the presence of varying concentrations of the above listed compounds at different time points was used to assess cytotoxicity and the effect of the compounds on cell proliferation.
# Cell viability was measured by the […]-GlO® cell viability assay from Promega (Madison, Wis.). The […]-GlO Luminescent Cell Viability Assay is a homogeneous method to determine the number of viable cells in culture based on quantitation of the ATP present, which signals the presence of metabolically active cells. Following treatment, […]-GlO® is added to treatment wells and incubated at 37° C. Luminescence values were measured at using a Molecular Devices Spectramax microplate reader.
# Cells were grown to 70% confluency, trypsinized, counted, and seeded in 96 well flat-bottom plates at a final concentration of 2.5×10^3-5×10^3 cells/well (Day 0). Cells were allowed to incubate in growth media for 24 hours. Treatment with the test agents or standard agents began on Day 1 and continued for 72 hours. At the 72-hour time point, treatment containing media was removed. Viable cell numbers were quantified by the […]-GLO® cell viability assay as described above. Results from these studies were used to calculate an IC50 value (concentration of drug that inhibits cell growth by 50 percent of control) for each compound.
# For single agent and combination studies, data from each experiment was collected and expressed as % Cell Growth using the following calculation: % Cell Growth=(ftest/fvehicle)×100
# Where ftest is the luminescence of the tested sample, and fvehicle is the luminescence of the vehicle in which the drug is dissolved. Dose response graphs and IC50 values were generated using Prism 6 software (GraphPad) using the following equation: Y=(Top−Bottom)/(1+10^((logIC50-X)−HillSlope))
# Where X is the logarithm of the concentration and Y is the response. Y starts at the Bottom and goes to the Top with a sigmoid shape.
# The experiments also evaluated the selectivity of the compounds for inhibiting growth of cancer cells carrying a mutation in the Flt3 gene. The MV411 cell line expresses the mutant allele of Flt3 with internal tandem duplications (ITD) of the gene. See Quentmeier et al., “FLT3 Mutations in Acute Myeloid Leukemia Cell Lines,” Leukemia 17(1), 2003, 120-124. […] See Grafone et al., “Monitoring of FLT3 Phosphorylation Status and Its Response to Drugs By Flow Cytometry in AML Blast Cells,” Hematol Oncol. 26(3), 2008, 159-166.
# Chain of ROCK1 (Q13464 whole entry, species assumed): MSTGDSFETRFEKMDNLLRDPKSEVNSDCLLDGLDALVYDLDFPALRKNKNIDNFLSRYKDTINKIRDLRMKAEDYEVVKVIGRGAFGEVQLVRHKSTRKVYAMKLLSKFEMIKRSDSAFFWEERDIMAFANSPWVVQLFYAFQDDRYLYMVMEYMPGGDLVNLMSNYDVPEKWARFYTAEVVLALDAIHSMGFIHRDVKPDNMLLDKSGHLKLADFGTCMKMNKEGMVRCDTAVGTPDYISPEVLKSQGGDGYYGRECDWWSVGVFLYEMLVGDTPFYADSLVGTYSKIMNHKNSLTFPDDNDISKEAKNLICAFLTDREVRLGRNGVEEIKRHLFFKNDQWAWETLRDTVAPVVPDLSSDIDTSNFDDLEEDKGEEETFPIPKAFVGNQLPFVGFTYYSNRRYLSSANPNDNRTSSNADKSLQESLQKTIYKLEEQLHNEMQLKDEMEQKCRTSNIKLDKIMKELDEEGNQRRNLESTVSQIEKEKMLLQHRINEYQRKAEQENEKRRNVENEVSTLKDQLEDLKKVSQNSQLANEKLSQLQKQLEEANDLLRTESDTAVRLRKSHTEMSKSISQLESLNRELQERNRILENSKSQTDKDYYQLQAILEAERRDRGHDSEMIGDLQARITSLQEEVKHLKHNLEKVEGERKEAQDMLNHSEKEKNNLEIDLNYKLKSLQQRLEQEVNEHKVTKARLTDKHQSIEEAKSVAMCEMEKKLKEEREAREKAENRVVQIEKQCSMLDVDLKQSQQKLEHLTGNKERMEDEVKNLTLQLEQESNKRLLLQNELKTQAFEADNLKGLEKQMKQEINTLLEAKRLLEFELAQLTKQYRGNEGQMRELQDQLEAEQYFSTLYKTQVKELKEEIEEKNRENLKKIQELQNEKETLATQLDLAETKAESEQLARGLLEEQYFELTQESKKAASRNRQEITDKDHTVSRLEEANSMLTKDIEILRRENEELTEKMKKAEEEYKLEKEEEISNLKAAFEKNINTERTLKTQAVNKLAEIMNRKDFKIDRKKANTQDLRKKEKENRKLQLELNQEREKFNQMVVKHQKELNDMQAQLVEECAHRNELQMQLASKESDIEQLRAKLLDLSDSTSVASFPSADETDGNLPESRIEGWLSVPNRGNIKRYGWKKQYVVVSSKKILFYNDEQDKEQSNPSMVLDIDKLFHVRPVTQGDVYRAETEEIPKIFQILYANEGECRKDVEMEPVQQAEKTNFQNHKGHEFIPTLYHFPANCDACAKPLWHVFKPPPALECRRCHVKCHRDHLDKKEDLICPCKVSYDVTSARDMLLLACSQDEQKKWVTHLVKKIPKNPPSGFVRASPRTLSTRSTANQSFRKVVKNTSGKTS
# Chain of ROCK2 (O75116 whole entry, species assumed): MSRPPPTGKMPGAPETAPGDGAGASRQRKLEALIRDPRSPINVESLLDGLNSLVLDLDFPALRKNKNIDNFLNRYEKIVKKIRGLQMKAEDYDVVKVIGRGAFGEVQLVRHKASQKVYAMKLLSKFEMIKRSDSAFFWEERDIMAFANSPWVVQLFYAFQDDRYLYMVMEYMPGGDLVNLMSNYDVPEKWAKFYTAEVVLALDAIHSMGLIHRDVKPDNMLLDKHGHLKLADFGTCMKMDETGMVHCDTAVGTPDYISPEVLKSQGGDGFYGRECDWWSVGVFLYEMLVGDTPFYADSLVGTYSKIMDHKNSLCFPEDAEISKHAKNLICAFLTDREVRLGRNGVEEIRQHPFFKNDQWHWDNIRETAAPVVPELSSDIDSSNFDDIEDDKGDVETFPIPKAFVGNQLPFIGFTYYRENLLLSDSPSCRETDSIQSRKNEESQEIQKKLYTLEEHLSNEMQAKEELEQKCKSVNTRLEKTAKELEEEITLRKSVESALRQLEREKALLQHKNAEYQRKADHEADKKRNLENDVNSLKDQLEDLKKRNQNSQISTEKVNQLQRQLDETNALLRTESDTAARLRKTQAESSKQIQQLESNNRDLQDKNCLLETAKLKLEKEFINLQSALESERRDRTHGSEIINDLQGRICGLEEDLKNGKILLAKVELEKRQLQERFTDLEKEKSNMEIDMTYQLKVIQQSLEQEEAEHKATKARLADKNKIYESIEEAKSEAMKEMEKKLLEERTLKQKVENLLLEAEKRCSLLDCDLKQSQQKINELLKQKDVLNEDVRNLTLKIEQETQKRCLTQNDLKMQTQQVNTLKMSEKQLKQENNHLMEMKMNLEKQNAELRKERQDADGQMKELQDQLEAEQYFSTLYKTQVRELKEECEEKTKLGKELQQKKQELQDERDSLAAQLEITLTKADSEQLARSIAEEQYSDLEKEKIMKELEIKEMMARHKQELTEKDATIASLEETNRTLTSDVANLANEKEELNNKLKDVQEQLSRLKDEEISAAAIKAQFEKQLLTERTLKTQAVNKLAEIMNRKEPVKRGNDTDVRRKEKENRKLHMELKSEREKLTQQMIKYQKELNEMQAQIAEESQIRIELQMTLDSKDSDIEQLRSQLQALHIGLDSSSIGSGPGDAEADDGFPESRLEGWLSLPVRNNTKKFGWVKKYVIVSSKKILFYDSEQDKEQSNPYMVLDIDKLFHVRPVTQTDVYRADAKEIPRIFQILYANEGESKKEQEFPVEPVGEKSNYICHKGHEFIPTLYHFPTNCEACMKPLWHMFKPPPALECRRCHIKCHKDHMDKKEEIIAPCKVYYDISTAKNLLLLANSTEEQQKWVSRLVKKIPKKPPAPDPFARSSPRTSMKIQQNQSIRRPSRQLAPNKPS
Compound,IC50 (ROCK2) [nM],IC50 (ROCK1) [nM],IC50 (MV411 cell line) [nM],FLT3-ITD+ Selectivity (K562/MV411) (MV411 cell line),IC50 (K562 cell line) [nM],also measured
CCN(CC)C1CCC(NC(=O)c2cccc([C@@H](CO)NC(=O)c3ccc(-c4ccncc4)cc3)c2)CC1 (stereo partly shown) [Compound 35],1.2,1.6,–,–,–,–
C[C@@H](NC(=O)c1ccc(-c2ccncc2)cc1)c1cccc(C(=O)NC2CCCC2)c1 [Compound 36],–,–,–,–,–,"AUC % Extrap ([1]; IV - 1 mg/kg): 0.35%; Cl/F obs ([1]; IV - 1 mg/kg): 2.67 mL/min/kg; R-sq ([1]; IV - 1 mg/kg): 0.72; AUC % Extrap ([1]; PO - 5 mg/kg): 0.33%; R-sq ([1]; PO - 5 mg/kg): 1.00; AUC(0-inf) ([1]; mouse, plasma, IV - 1 mg/kg): 6070 ng·h/mL; C0 ([1]; mouse, plasma, IV - 1 mg/kg): 5910 ng/mL; Cmax ([1]; mouse, plasma, IV - 1 mg/kg): 4340 ng/mL; Tmax ([1]; mouse, plasma, IV - 1 mg/kg): 0.25 h; half-life ([1]; mouse, plasma, IV - 1 mg/kg): 2.59 h; AUC(0-t) ([1]; mouse, plasma, IV - 1 mg/kg): 5850 ng·h/mL; Vd ([1]; mouse, plasma, IV - 1 mg/kg, read-out: Vss): 0.27 L/kg; AUC(0-inf) ([1]; mouse, plasma, PO - 5 mg/kg): 10500 ng·h/mL; CL/F ([1]; mouse, plasma, PO - 5 mg/kg): 8 mL/min/kg; Cmax ([1]; mouse, plasma, PO - 5 mg/kg): 2500 ng/mL; Tmax ([1]; mouse, plasma, PO - 5 mg/kg): 1 h; half-life ([1]; mouse, plasma, PO - 5 mg/kg): 2.96 h; bioavailability ([1]; mouse, plasma, PO - 5 mg/kg vs IV - 1 mg/kg): 34.6%; AUC(0-t) ([1]; mouse, plasma, PO - 5 mg/kg): 8890 ng·h/mL; Vd/F ([1]; mouse, plasma, PO - 5 mg/kg, read-out: Vz/F obs): 2.04 L/kg"
O=C(NC1CCCC1)c1cccc([C@@H](CO)NC(=O)c2cccc(-c3ccncc3)c2)c1 [Compound 63],4.1,14,140,>721,> 100000,–
Cc1ccc(-c2ccncc2)cc1C(=O)N[C@H](CO)c1cccc(C(=O)NC2CCCC2)c1 [Compound 64],5.2,16.8,1490,>68,> 100000,–
CCc1ccc(-c2ccncc2)cc1C(=O)N[C@H](CO)c1cccc(C(=O)NC2CCCC2)c1 [Compound 70],0.9,3.84,310,275,85000,–
C[C@@H](NC(=O)c1ccc(-c2ccncc2)cc1)c1cccc(C(=O)NC2CC2)c1 [Compound 76],1.2,2.4,480,120,58000,–
COC(=O)N1CCC(NC(=O)c2cccc([C@@H](CO)NC(=O)c3ccc(-c4ccncc4)cc3)c2)CC1 [Compound 77],0.94,2.1,20,>5000,> 100000,–
COC(=O)N1CCC(CNC(=O)c2cccc([C@@H](CO)NC(=O)c3ccc(-c4ccncc4)cc3)c2)CC1 [Compound 78],0.57,1.7,30,>3333,> 100000,–
O=C(NC1CCN(CC(F)(F)F)CC1)c1cccc([C@@H](CO)NC(=O)c2ccc(-c3ccncc3)cc2)c1 [Compound 79],0.68,1.9,30,>3333,> 100000,–
COc1ccc(NC(=O)c2cccc([C@@H](CO)NC(=O)c3ccc(-c4ccncc4)cc3)c2)cn1 [Compound 80],–,1.7,–,–,–,–
COc1cc(-c2cn[nH]c2)ccc1C(=O)N[C@H](CO)c1cccc(C(=O)NC2CCCC2)c1 [Compound 81],0.88,3.2,120,833,> 100000,–
CN(C)Cc1cccc(CNC(=O)c2cccc([C@@H](CO)NC(=O)c3ccc(-c4cn[nH]c4)cc3)c2)c1 [Compound 82],0.65,2,610,166,> 100000,–
CCOc1cc(-c2cn[nH]c2)ccc1C(=O)N[C@H](C)c1cccc(C(=O)NC2CCCC2)c1 [Compound 103],0.52,1.51,140,59,8000,–
